Source: ChEMBL document CHEMBL5325497, “Facilitated Drug Repurposing with Artemisinin-Derived PROTACs: Unveiling PCLAF as a Therapeutic Target” (J Med Chem, 2023)
Active and inactive are the calls of the source. The rule behind the calls is not given here.

Key:
RS4-11 [1] = test: Antiproliferative activity against human RS4-11 cells assessed as cell growth inhibition incubated for 48 hrs by CCK8 colorimetric assay; assay type: functional, cell-based; settings: RS4-11, 48 h
RPMI-8226 = test: Antiproliferative activity against human RPMI-8226 cells assessed as cell growth inhibition incubated for 48 hrs by CCK8 colorimetric assay; assay type: functional, cell-based; settings: RPMI-8226, 48 h
U-266 = test: Antiproliferative activity against human U266B1 cells assessed as cell growth inhibition incubated for 48 hrs by CCK8 colorimetric assay; assay type: functional, cell-based; settings: U-266, 48 h
PCNA-associated factor = target: T1, PCNA-associated factor (Homo sapiens, UniProt Q15004); test: Binding affinity to PCLAF (unknown origin) assessed as equilibrium dissociation constant by SPR assay
T1 sequence (Q15004 whole entry): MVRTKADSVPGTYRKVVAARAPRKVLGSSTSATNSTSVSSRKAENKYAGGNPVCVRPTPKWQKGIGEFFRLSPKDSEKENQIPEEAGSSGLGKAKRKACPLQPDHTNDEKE

RS4-11 [2] = test: Induction of apoptosis in human RS4-11 cells incubated for 48 hrs Annexin V-FITC/PI staining based flow cytometry analysis; assay type: functional, cell-based
RS4-11 [3] = test: Induction of apoptosis in human RS4-11 cells assessed as increase in early apoptosis at 10 to 200 nM incubated for 48 hrs Annexin V-FITC/PI staining based flow cytometry analysis; assay type: functional, cell-based; settings: dose 10-200 nM
RS4-11 [4] = test: Induction of apoptosis in human RS4-11 cells assessed as increase in late apoptosis at 10 to 200 nM incubated for 48 hrs Annexin V-FITC/PI staining based flow cytometry analysis; assay type: functional, cell-based; settings: dose 10-200 nM
RS4-11 [5] = test: Induction of cell cycle arrest in human RS4-11 cells assessed as accumulation of cells at G1 phase incubated for 48 hrs by propidium iodide staining based flow cytometry analysis; assay type: functional
[6] = Toxicity in NOD/SCID mouse xenografted with human RS4-11 cells assessed as maximum tolerated dose at IV administration for 5 consecutive days; settings: in vivo
[7] = Toxicity in NOD/SCID mouse xenografted with human RS4-11 cells assessed as change in body weight at 25 mg/kg,iv qd administration for 5 consecutive days; assay type: organism-based; settings: in vivo
[8] = Toxicity in NOD/SCID mouse xenografted with human RS4-11 cells assessed as pathological change in heart at 25 mg/kg,iv qd administration for 5 consecutive days by hematoxylin and eosin staining based microscopic analysis; assay type: organism-based; settings: in vivo
[9] = Toxicity in NOD/SCID mouse xenografted with human RS4-11 cells assessed as pathological change in liver at 25 mg/kg,iv qd administration for 5 consecutive days by hematoxylin and eosin staining based microscopic analysis; assay type: organism-based; settings: in vivo
[10] = Toxicity in NOD/SCID mouse xenografted with human RS4-11 cells assessed as pathological change in kidney at 25 mg/kg,iv qd administration for 5 consecutive days by hematoxylin and eosin staining based microscopic analysis; assay type: organism-based; settings: in vivo
[11] = Oral bioavailability in Sprague-Dawley rat at 50 mg/kg measured upto 24 hrs by LC-MS/MS analysis; assay type: ADME, organism-based; settings: in vivo
RS4-11 [12] = test: Antitumor activity against human RS4-11 cells xenografted in NOD/SCID mouse assessed as tumor growth inhibition at 1 mg/kg,iv administration for 5 consecutive days; assay type: functional, organism-based
RS4-11 [13] = test: Antitumor activity against human RS4-11 cells xenografted in NOD/SCID mouse assessed as tumor growth inhibition at 5 mg/kg,iv administration for 5 consecutive days; assay type: functional, organism-based
RS4-11 [14] = test: Antitumor activity against human RS4-11 cells xenografted in NOD/SCID mouse assessed as increase in survival day at IV administration for 5 consecutive days; assay type: functional
[15] = Toxicity in NOD/SCID mouse xenografted with human RS4-11 cells assessed as change in body weight at 1 mg/kg,iv qd administration for 5 consecutive days; assay type: organism-based; settings: in vivo
[16] = Toxicity in NOD/SCID mouse xenografted with human RS4-11 cells assessed as change in body weight at 5 mg/kg,iv qd administration for 5 consecutive days; assay type: organism-based; settings: in vivo
[17] = Toxicity in NOD/SCID mouse xenografted with human RS4-11 cells assessed as adverse effect at 1 mg/kg,iv qd administration for 5 consecutive days; assay type: organism-based; settings: in vivo
[18] = Toxicity in NOD/SCID mouse xenografted with human RS4-11 cells assessed as adverse effect at 5 mg/kg,iv qd administration for 5 consecutive days; assay type: organism-based; settings: in vivo
[19] = target: T2, Protein cereblon/PCNA-associated factor (Homo sapiens, UniProt Q15004+Q96SW2); test: PROTAC activity at CRBN/PCLAF in human RS4-11 cells assessed as degradation of PCLAF protein at 100 nM incubated for 12 hrs by Western blotting analysis; assay type: cell-based
Target sequence in this assay (Q96SW2 whole entry, looked up, one chain of several): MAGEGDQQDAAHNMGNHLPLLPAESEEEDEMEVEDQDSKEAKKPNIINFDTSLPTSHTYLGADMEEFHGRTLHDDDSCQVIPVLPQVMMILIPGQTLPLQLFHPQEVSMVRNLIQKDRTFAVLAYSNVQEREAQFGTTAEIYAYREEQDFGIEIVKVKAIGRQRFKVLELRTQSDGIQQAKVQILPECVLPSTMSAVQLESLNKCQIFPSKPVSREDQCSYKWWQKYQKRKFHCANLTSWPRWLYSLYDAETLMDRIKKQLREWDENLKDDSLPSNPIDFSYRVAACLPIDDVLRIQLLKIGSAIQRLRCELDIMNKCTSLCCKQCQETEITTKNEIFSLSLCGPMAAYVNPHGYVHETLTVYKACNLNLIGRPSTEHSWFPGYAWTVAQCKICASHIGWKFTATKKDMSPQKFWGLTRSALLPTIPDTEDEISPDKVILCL

[20] = target: T2, Protein cereblon/PCNA-associated factor; test: PROTAC activity at CRBN/PCLAF in human RS4-11 cells assessed as degradation of PCLAF protein at 100 nM incubated for 12 hrs in presence of MG132 by Western blotting analysis; assay type: cell-based
Target sequence in this assay (Q96SW2 whole entry, looked up, one chain of several): as above

[21] = target: T2, Protein cereblon/PCNA-associated factor; test: PROTAC activity at CRBN/PCLAF in human RS4-11 cells assessed as degradation of PCLAF protein by Western blotting analysis; assay type: cell-based
Target sequence in this assay (Q96SW2 whole entry, one chain of several): as the sequence (Q96SW2 whole entry, looked up, one chain of several) above

[22] = target: T2, Protein cereblon/PCNA-associated factor; test: PROTAC activity at CRBN/PCLAF in human RS4-11 cells assessed as maximal degradation of PCLAF protein by Western blotting analysis relative to control; assay type: cell-based
Target sequence in this assay (Q96SW2 whole entry, looked up, one chain of several): as above

[23] = target: T2, Protein cereblon/PCNA-associated factor; test: PROTAC activity at CRBN/PCLAF in human RS4-11 cells assessed as degradation of PCLAF protein at 4 hr by Western blotting analysis; assay type: cell-based
Target sequence in this assay (Q96SW2 whole entry, looked up, one chain of several): as above

[24] = target: T2, Protein cereblon/PCNA-associated factor; test: PROTAC activity at CRBN/PCLAF in human RS4-11 cells assessed as maximal degradation of PCLAF protein at 24 hr by Western blotting analysis; assay type: cell-based
Target sequence in this assay (Q96SW2 whole entry, looked up, one chain of several): as above

[25] = target: T2, Protein cereblon/PCNA-associated factor; test: PROTAC activity at CRBN/PCLAF in human RS4-11 cells assessed as degradation of PCLAF protein at 100 nM measured after 24 hr of compound washout by Western blotting analysis; assay type: cell-based
Target sequence in this assay (Q96SW2 whole entry, looked up, one chain of several): as above

[26] = target: T2, Protein cereblon/PCNA-associated factor; test: PROTAC activity at CRBN/PCLAF in human RS4-11 cells assessed as degradation of PCLAF protein at 100 nM incubated for 12 hrs in presence of SM1044 by Western blotting analysis; assay type: cell-based
[27] = target: T2, Protein cereblon/PCNA-associated factor; test: PROTAC activity at CRBN/PCLAF in human RS4-11 cells assessed as degradation of PCLAF protein at 100 nM incubated for 12 hrs in presence of pomalidomide by Western blotting analysis; assay type: cell-based
[28] = target: T3, PCNA-associated factor (Homo sapiens) (UniProt Q15004); test: Binding affinity to PCLAF in human RS4-11 cells assessed as thermal stability at 100 uM incubated for 60 mins by CETSA assay; assay type: cell-based
T3 sequence (whole entry): T1 sequence (Q15004 whole entry)

[29] = target: T2, Protein cereblon/PCNA-associated factor; test: PROTAC activity at CRBN/PCLAF in human RS4-11 cells assessed as degradation of PCLAF protein at 40 nM incubated for 40 mins by DARTS analysis; assay type: cell-based
[30] = target: T2, Protein cereblon/PCNA-associated factor; test: PROTAC activity at CRBN/PCLAF in human RS4-11 cells assessed as upregulation of p21 protein at 10 to 100 nM by Western blotting analysis; assay type: cell-based; settings: dose 10-100 nM
[31] = target: T2, Protein cereblon/PCNA-associated factor; test: PROTAC activity at CRBN/PCLAF in human RS4-11 cells assessed as downregulation of Rb phosphorylation at 10 to 100 nM by Western blotting analysis; assay type: cell-based; settings: dose 10-100 nM
[32] = target: T2, Protein cereblon/PCNA-associated factor; test: PROTAC activity at CRBN/PCLAF in human RS4-11 cells assessed as degradation of PCLAF protein at 10 to 100 nM by Western blotting analysis; assay type: cell-based; settings: dose 10-100 nM
RS4-11 [33] = test: Induction of apoptosis in human RS4-11 cells assessed as downregulation of Bcl-2 level at 10 to 100 nM by Western blotting analysis; assay type: functional, cell-based; settings: dose 10-100 nM
RS4-11 [34] = test: Induction of apoptosis in human RS4-11 cells assessed as upregulation of Bax level at 10 to 100 nM by Western blotting analysis; assay type: functional, cell-based; settings: dose 10-100 nM

C[C@@H]1CCC2[C@@H](C)[C@@H](OCCN(CCO[C@H]3O[C@@H]4O[C@@]5(C)CCC6[C@H](C)CCC([C@H]3C)[C@]64OO5)C(=O)CCCCCCNc3cccc4c3C(=O)N(C3CCC(=O)NC3=O)C4=O)O[C@@H]3O[C@@]4(C)CCC1[C@@]23OO4 (stereo partly drawn)
IC50 (RS4-11 [1]): 0.0794 µM
IC50 (RPMI-8226): 0.104 µM
IC50 (U-266): 0.265 µM

C[C@@H]1CCC2[C@@H](C)[C@@H](OCCN(CCO[C@H]3O[C@@H]4O[C@@]5(C)CCC6[C@H](C)CCC([C@H]3C)[C@]64OO5)C(=O)CCCCCCCCNc3cccc4c3C(=O)N(C3CCC(=O)NC3=O)C4=O)O[C@@H]3O[C@@]4(C)CCC1[C@@]23OO4 (stereo partly drawn)
IC50 (RS4-11 [1]): 0.0724 µM
IC50 (RPMI-8226): 0.322 µM
IC50 (U-266): 0.407 µM

C[C@@H]1CCC2[C@@H](C)[C@@H](OCCN(CCO[C@H]3O[C@@H]4O[C@@]5(C)CCC6[C@H](C)CCC([C@H]3C)[C@]64OO5)C(=O)CCCCCNc3cccc4c3C(=O)N(C3CCC(=O)NC3=O)C4=O)O[C@@H]3O[C@@]4(C)CCC1[C@@]23OO4 (stereo partly drawn)
IC50 (RS4-11 [1]): 0.0968 µM
IC50 (RPMI-8226): 0.148 µM
IC50 (U-266): 0.543 µM

C[C@H]1[C@@H](OCCNCCO[C@H]2O[C@@H]3O[C@]4(C)CC[C@H]5[C@H](C)CC[C@@H]([C@H]2C)[C@@]35OO4)O[C@@H]2O[C@]3(C)CC[C@H]4[C@H](C)CC[C@@H]1[C@@]24OO3
IC50 (RS4-11 [1]): 0.641 µM
IC50 (RPMI-8226): > 1 µM
IC50 (U-266): > 1 µM
Kd (PCNA-associated factor): 183 µM

C[C@@H]1CCC2[C@@H](C)[C@@H](OCCN(CCO[C@H]3O[C@@H]4O[C@@]5(C)CCC6[C@H](C)CCC([C@H]3C)[C@]64OO5)C(=O)CCCCNc3cccc4c3C(=O)N(C3CCC(=O)NC3=O)C4=O)O[C@@H]3O[C@@]4(C)CCC1[C@@]23OO4 (stereo partly drawn)
IC50 (RS4-11 [1]): 0.243 µM
IC50 (RPMI-8226): > 1 µM
IC50 (U-266): > 1 µM

C[C@@H]1CCC2[C@@H](C)[C@@H](OCCN(CCO[C@H]3O[C@@H]4O[C@@]5(C)CCC6[C@H](C)CCC([C@H]3C)[C@]64OO5)C(=O)CCCCCCCNc3cccc4c3C(=O)N(C3CCC(=O)NC3=O)C4=O)O[C@@H]3O[C@@]4(C)CCC1[C@@]23OO4 (stereo partly drawn)
IC50 (RS4-11 [1]): 0.0506 µM
IC50 (RPMI-8226): 0.235 µM
IC50 (U-266): 0.343 µM
Activity (RS4-11 [2]): Dose-Dependent Effect
Activity (RS4-11 [3]): Active
Activity (RS4-11 [4]): Active
Activity (RS4-11 [5]): Dose-Dependent Effect
MTD at 5 days [6]: 25 mg/kg
Activity [7]: Non-Toxic
Activity [8]: Non-Toxic
Activity [9]: Non-Toxic
Activity [10]: Non-Toxic
bioavailability [11]: 24%
Activity (RS4-11 [12]): Active
Activity (RS4-11 [13]): Active
Activity (RS4-11 [14]): Dose-Dependent Effect
Activity [15]: Non-Toxic
Activity [16]: Non-Toxic
Activity [17]: Non-Toxic
Activity [18]: Non-Toxic
Activity [19]: Active
Activity [20]: inactive
DC50 [21]: 0.0549 µM
Emax [22]: 95%
Activity [23]: Active
Activity [24]: Active
Activity [25]: inactive
Activity [26]: inactive
Activity [27]: inactive
Activity [28]: Active
Activity [29]: inactive
Kd (PCNA-associated factor): 6.1 µM
Activity [30]: Active
Activity [31]: Active
Activity [32]: Active
Activity (RS4-11 [33]): Active
Activity (RS4-11 [34]): Active
